Literature values, collected in PubChem BioAssay AID1259409 (Chemical Carcinogenesis Research Information System (CCRIS), 2018).

Tested on: rodent chemically induced tumor inhibition, incidence and multiplicity
Experiment: CCRIS tumor inhibitor studies
Settings: Route [Inhibitor]: ORAL, Species: HAMSTER, Promoter: NONE USED
Excerpt: The CCRIS database contains chemical records with carcinogenicity, mutagenicity, tumor promotion, and tumor inhibition test results. It was developed by the National Cancer Institute (NCI). Data are derived from studies cited in primary journals, current awareness tools, NCI reports, and other sources. Test results have been reviewed by experts in carcinogenesis and mutagenesis.
CCRIS provides historical information from the years 1985 - 2011. It is no longer updated.
This is an archive assay for CCRIS tumor inhibitor studies.

SMILES: CC1=C(/C=C/C(C)=C/C=C/C(C)=C/C(=O)NCCO)C(C)(C)CCC1
- tumour outcome (control, treated, inhibition, significance) (Carcinogen: N-NITROBIS(2-OXOPROPYL)AMINE, 60559-38-4, Dose [Inhibitor]: 0.5 OR 1.0 MMOL/KG DIET DAILY STARTING 1 WK AFTER CARCINOGEN TREATMENT AND CONTINUING THROUGH THE END OF THE STUDY (STUD, Strain/Sex: SYRIAN/MALE, Target Tissue: Type of Lesion: PANCREAS: DUCTULAR CARCINOMA, Dose [Carcinogen]: 10 MG/KG BW ONCE): 4/22 (18%), 7/37 (19%), -6%, not significant
- tumour outcome (control, treated, inhibition, significance) (Carcinogen: N-NITROBIS(2-OXOPROPYL)AMINE, 60559-38-4, Dose [Inhibitor]: 0.5 OR 1.0 MMOL/KG DIET DAILY STARTING 1 WK AFTER CARCINOGEN TREATMENT AND CONTINUING THROUGH THE END OF THE STUDY (STUD, Strain/Sex: SYRIAN/MALE, Target Tissue: Type of Lesion: PANCREAS: DUCTULAR CARCINOMA, Dose [Carcinogen]: 40 MG/KG BW ONCE): 5/24 (21%), 20/42 (48%), -129%, not significant
- tumour outcome (control, treated, inhibition, significance) (Carcinogen: N-NITROBIS(2-OXOPROPYL)AMINE, 60559-38-4, Dose [Inhibitor]: 0.5 OR 1.0 MMOL/KG IN DIET STARTING 1 WK AFTER CARCINOGEN TREATMENT AND CONTINUING THROUGH THE END OF THE STUDY (STUDY D, Strain/Sex: SYRIAN/FEMALE, Target Tissue: Type of Lesion: LIVER: BENIGN TUMOR, Dose [Carcinogen]: 40 MG/KG BW ONCE): 4/20 (20%), 17/35 (49%), -145%, not significant
- tumour outcome (control, treated, inhibition, significance) (Carcinogen: N-NITROBIS(2-OXOPROPYL)AMINE, 60559-38-4, Dose [Inhibitor]: 0.5 OR 1.0 MMOL/KG IN DIET STARTING 1 WK AFTER CARCINOGEN TREATMENT AND CONTINUING THROUGH THE END OF THE STUDY (STUDY D, Strain/Sex: SYRIAN/FEMALE, Target Tissue: Type of Lesion: PANCREAS: DUCTULAR ADENOMA, Dose [Carcinogen]: 10 MG/KG BW ONCE): 5/23 (23%), 10/37 (27%), -17%, not significant
- tumour outcome (control, treated, inhibition, significance) (Carcinogen: N-NITROBIS(2-OXOPROPYL)AMINE, 60559-38-4, Dose [Inhibitor]: 0.5 OR 1.0 MMOL/KG IN DIET STARTING 1 WK AFTER CARCINOGEN TREATMENT AND CONTINUING THROUGH THE END OF THE STUDY (STUDY D, Strain/Sex: SYRIAN/FEMALE, Target Tissue: Type of Lesion: PANCREAS: DUCTULAR ADENOMA, Dose [Carcinogen]: 40 MG/KG BW ONCE): 12/20 (60%), 27/33 (82%), -37%, not significant
- tumour outcome (control, treated, inhibition, significance) (Carcinogen: N-NITROBIS(2-OXOPROPYL)AMINE, 60559-38-4, Dose [Inhibitor]: 0.5 OR 1.0 MMOL/KG IN DIET STARTING 1 WK AFTER CARCINOGEN TREATMENT AND CONTINUING THROUGH THE END OF THE STUDY (STUDY D, Strain/Sex: SYRIAN/FEMALE, Target Tissue: Type of Lesion: PANCREAS: DUCTULAR CARCINOMA, Dose [Carcinogen]: 40 MG/KG BW ONCE): 6/20 (30%), 8/33 (24%), 20%, not significant
- tumour outcome (control, treated, inhibition, significance) (Carcinogen: N-NITROBIS(2-OXOPROPYL)AMINE, 60559-38-4, Dose [Inhibitor]: 0.5 OR 1.0 MMOL/KG IN DIET STARTING 1 WK AFTER CARCINOGEN TREATMENT AND CONTINUING THROUGH THE END OF THE STUDY (STUDY D, Strain/Sex: SYRIAN/MALE, Target Tissue: Type of Lesion: LIVER: BENIGN TUMOR, Dose [Carcinogen]: 40 MG/KG BW ONCE): 5/24 (21%), 26/42 (62%), -195%, p<0.05
- tumour outcome (control, treated, inhibition, significance) (Carcinogen: N-NITROBIS(2-OXOPROPYL)AMINE, 60559-38-4, Dose [Inhibitor]: 0.5 OR 1.0 MMOL/KG IN DIET STARTING 1 WK AFTER CARCINOGEN TREATMENT AND CONTINUING THROUGH THE END OF THE STUDY (STUDY D, Strain/Sex: SYRIAN/MALE, Target Tissue: Type of Lesion: PANCREAS: DUCTULAR ADENOMA, Dose [Carcinogen]: 10 MG/KG BW ONCE): 3/22 (14%), 16/37 (43%), -207%, not significant
- tumour outcome (control, treated, inhibition, significance) (Carcinogen: N-NITROBIS(2-OXOPROPYL)AMINE, 60559-38-4, Dose [Inhibitor]: 0.5 OR 1.0 MMOL/KG IN DIET STARTING 1 WK AFTER CARCINOGEN TREATMENT AND CONTINUING THROUGH THE END OF THE STUDY (STUDY D, Strain/Sex: SYRIAN/MALE, Target Tissue: Type of Lesion: PANCREAS: DUCTULAR ADENOMA, Dose [Carcinogen]: 40 MG/KG BW ONCE): 8/24 (33%), 34/42 (81%), -145%, not significant
- tumour outcome (control, treated, inhibition, significance) (Carcinogen: N-NITROBIS(2-OXOPROPYL)AMINE, 60559-38-4, Dose [Inhibitor]: 0.5 OR 1.0 MMOL/KG IN DIET STARTING 1 WK AFTER CARCINOGEN TREATMENT AND CONTINUING THROUGH THE END OF THE STUDY (STUDY D, Strain/Sex: SYRIAN/MALE, Target Tissue: Type of Lesion: PANCREAS: DUCTULAR CARCINOMA, Dose [Carcinogen]: 10 MG/KG BW SINGLE INJECTION): 4/22 (18%), 7/37 (19%), -6%, not significant
- tumour outcome (control, treated, inhibition, significance) (Carcinogen: N-NITROBIS(2-OXOPROPYL)AMINE, 60559-38-4, Dose [Inhibitor]: 0.5 OR 1.0 MMOL/KG IN DIET STARTING 1 WK AFTER CARCINOGEN TREATMENT AND CONTINUING THROUGH THE END OF THE STUDY (STUDY D, Strain/Sex: SYRIAN/MALE, Target Tissue: Type of Lesion: PANCREAS: DUCTULAR CARCINOMA, Dose [Carcinogen]: 40 MG/KG BW ONCE): 5/24 (21%), 20/42 (48%), -129%, not significant
- tumour outcome (control, treated, inhibition, significance) (Carcinogen: N-NITROSOBIS(2-OXYPROPYL)AMINE, 60599-38-4, Dose [Inhibitor]: 0.05, 0.1 OR 0.2 MILLIMOLAR/KG DIET FOR 32 WK STARTING 1 WK AFTER CARCINOGEN DOSE (STUDY DURATION: 33 WK), Strain/Sex: SYRIAN/FEMALE, Target Tissue: Type of Lesion: LIVER: ADENOMA, Dose [Carcinogen]: 40 MG/KG ONCE): 6/10 (60%), 6/29 (21%), 65%, p<0.025
